{
  "source": "paper PMC7825493",
  "about": "“Characterization of LDD-2633 as a Novel RET Kinase Inhibitor with Anti-Tumor Effects in Thyroid Cancer” (Pharmaceuticals, 2021)",
  "biological_target": "RET kinase (Homo sapiens, UniProt P07949)",
  "sequence (P07949 29-1114)": "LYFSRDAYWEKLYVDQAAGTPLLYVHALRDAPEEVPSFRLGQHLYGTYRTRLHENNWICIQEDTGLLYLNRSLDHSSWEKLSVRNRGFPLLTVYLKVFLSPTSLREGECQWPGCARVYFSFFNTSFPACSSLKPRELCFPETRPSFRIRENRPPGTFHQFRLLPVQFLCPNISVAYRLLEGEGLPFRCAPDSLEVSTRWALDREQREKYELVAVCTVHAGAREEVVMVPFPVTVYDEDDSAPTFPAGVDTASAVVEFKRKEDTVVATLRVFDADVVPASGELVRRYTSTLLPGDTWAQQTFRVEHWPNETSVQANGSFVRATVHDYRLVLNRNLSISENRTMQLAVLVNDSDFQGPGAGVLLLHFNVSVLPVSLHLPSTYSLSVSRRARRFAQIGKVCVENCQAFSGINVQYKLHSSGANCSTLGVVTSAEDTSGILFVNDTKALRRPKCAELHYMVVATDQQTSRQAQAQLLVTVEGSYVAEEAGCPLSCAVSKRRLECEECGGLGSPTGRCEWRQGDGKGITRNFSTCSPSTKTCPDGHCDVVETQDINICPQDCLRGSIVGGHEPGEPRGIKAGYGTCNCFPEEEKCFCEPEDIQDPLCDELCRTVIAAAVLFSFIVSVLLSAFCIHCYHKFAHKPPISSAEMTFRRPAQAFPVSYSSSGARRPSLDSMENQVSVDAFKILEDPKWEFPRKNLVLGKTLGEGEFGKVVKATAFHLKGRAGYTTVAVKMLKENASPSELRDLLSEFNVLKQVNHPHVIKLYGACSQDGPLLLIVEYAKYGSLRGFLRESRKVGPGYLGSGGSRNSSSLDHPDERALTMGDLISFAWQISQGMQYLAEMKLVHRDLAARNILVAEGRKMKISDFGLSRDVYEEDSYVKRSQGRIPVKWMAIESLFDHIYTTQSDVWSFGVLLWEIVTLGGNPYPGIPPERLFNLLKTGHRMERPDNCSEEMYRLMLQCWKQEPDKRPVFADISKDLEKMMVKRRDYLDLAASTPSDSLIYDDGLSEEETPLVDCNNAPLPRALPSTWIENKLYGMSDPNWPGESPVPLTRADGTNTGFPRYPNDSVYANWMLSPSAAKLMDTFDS",
  "assay": "HTRF KinEASE-TK (TR-FRET) kinase assay with recombinant RET, […] ATP",
  "format": "biochemical",
  "note": "Where a name gives a salt, the structure may show the parent alone.",
  "data": [
    {"smiles": "O=C1Nc2ccccc2/C1=C1/Nc2ccccc2/C1=N\\OCCN1CCNCC1", "note": "[LDD-2633, (2Z,3E)-3-((2-(piperazin-1-yl)ethoxy)imino)-[2,3′-biindolinylidene]-2′-one hydrochloride]", "values": [
      {"measurement": "IC50", "result": 4.42, "unit": "nM"}
    ]}
  ]
}
